We go through one compound from publication PMC6100543, “Parthenolide Inhibits STAT3 Signaling by Covalently Targeting Janus Kinases” (Molecules : A Journal of Synthetic Chemistry and Natural …, 2018).

The assay concerns the target T1, JAK2 (Mus musculus, UniProt Q62120).
T1 construct: JAK2-FLAG, overexpressed in HEK293 and immunoprecipitated
Description: in vitro kinase assay with immunoprecipitated JAK2-FLAG; LC-MS/MS of PN-modified tryptic peptides. The class given is biochemical.

T1 sequence (Q62120 whole entry): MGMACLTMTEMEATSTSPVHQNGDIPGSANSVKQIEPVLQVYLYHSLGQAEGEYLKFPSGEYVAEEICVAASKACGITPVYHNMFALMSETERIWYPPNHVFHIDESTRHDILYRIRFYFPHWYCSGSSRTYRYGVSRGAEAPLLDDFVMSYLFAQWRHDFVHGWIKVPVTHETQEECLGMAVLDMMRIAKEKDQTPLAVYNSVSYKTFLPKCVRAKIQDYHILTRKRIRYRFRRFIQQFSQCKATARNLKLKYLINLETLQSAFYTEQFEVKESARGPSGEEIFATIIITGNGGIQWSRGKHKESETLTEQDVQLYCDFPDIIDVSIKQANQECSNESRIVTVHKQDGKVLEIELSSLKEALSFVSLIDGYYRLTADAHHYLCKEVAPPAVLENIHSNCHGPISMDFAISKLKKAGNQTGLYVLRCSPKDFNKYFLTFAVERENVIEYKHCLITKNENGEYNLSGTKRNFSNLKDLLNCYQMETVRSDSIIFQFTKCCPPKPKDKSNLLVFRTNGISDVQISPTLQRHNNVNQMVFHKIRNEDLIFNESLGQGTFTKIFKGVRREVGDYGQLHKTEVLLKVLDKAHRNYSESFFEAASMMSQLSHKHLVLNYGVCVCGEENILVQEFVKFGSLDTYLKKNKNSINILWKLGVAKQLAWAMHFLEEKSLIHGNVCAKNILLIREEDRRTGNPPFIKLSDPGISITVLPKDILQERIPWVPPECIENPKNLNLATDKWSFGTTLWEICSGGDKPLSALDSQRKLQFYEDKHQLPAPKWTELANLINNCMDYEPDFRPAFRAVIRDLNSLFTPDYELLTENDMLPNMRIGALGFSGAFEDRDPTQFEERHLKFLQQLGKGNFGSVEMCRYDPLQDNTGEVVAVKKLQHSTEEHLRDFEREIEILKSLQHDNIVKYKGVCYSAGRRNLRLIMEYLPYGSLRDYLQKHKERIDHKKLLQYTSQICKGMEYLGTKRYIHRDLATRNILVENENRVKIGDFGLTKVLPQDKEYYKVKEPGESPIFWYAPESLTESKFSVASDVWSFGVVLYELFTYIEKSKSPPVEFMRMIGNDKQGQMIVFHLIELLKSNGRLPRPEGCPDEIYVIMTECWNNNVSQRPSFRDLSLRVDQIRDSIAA

As usually defined, the IC50 is the midpoint of a concentration-inhibition curve. In turn, `C=C1C(=O)O[C@H]2[C@H]1CC/C(C)=C/CC[C@@]1(C)O[C@@H]21` [PN, parthenolide] gave an IC50 of 3.94 µM.
